In test [1] the target is T1, Neuronal acetylcholine receptor; alpha9/alpha10 (Homo sapiens, UniProt Q9GZZ6+Q9UGM1). Put plainly: Inhibition of human alpha9/alpha10 nACHR (3:1) expressed in Xenopus laevis oocyte assessed as inhibition of ACh induced channel current measured for 2 to 5 days at -80 mV holding potential by two electrode voltage clamp method.
Test [2] has as its target T2, Neuronal acetylcholine receptor; alpha9/alpha10 (Homo sapiens, UniProt Q9GZZ6+Q9UGM1, N154G). The test is described as follows: Inhibition of human alpha9 N154G mutant/alpha10 nACHR (3:1) expressed in Xenopus laevis oocyte assessed as inhibition of ACh induced channel current measured for 2 to 5 days at -80 mV holding potential by two electrode voltage clamp method.

For test [3], the target named is T1, Neuronal acetylcholine receptor; alpha9/alpha10. Put plainly: Inhibition of human alpha9/alpha10 nACHR (1:3) expressed in Xenopus laevis oocyte assessed as inhibition of ACh induced channel current measured for 2 to 5 days at -80 mV holding potential by two electrode voltage clamp method.
Test [4] addresses T2, Neuronal acetylcholine receptor; alpha9/alpha10. Put plainly: Inhibition of human alpha9 N154G mutant/alpha10 nACHR (1:3) expressed in Xenopus laevis oocyte assessed as inhibition of ACh induced channel current measured for 2 to 5 days at -80 mV holding potential by two electrode voltage clamp method. A general note: Two-electrode voltage clamp holds a large cell at a set potential and records current.

Test [5] is filed under the species Homo sapiens. The test is described as follows: Ratio of IC50 for human alpha9/alpha10 nACHR (1:3) to IC50 for human alpha9 N154G mutant/alpha10 nACHR (1:3).
In test [6] the target is Neuronal acetylcholine receptor; alpha9/alpha10 (Homo sapiens, UniProt Q9GZZ6+Q9UGM1, G154N). The test is described as follows: Inhibition of human alpha9/alpha10 G154N mutant nACHR (1:3) expressed in Xenopus laevis oocyte assessed as inhibition of ACh induced channel current measured for 2 to 5 days at -80 mV holding potential by two electrode voltage clamp method.
The species named for test [7] is Homo sapiens. Put plainly: Ratio of IC50 for human alpha9/alpha10 nACHR (3:1) to IC50 for human alpha9 N154G mutant/alpha10 nACHR (3:1).
The target of test [8] is T3, Neuronal acetylcholine receptor; alpha9/alpha10 (Homo sapiens) (UniProt Q9UGM1+Q9GZZ6). The test is described as follows: Inhibition of human alpha9/alpha10 nACHR (2:3) expressed in Xenopus laevis oocyte assessed as inhibition of ACh induced channel current at 1 uM measured for 2 to 5 days at -80 mV holding potential by two electrode voltage clamp method.
In test [9] the target is T3, Neuronal acetylcholine receptor; alpha9/alpha10 (Homo sapiens). Put plainly: Inhibition of human alpha9 N154G mutant/alpha10 nACHR (3:1) expressed in Xenopus laevis oocyte assessed as inhibition of ACh induced channel current at 1 uM measured for 2 to 5 days at -80 mV holding potential by two electrode voltage clamp method.
For test [10] the target is unchanged. The test is described as follows: Inhibition of human alpha9/alpha10 nACHR (3:2) expressed in Xenopus laevis oocyte assessed as inhibition of ACh induced channel current at 1 uM measured for 2 to 5 days at -80 mV holding potential by two electrode voltage clamp method.
Test [11] concerns the target T1, Neuronal acetylcholine receptor; alpha9/alpha10. Put plainly: Inhibition of human alpha9/alpha10 nACHR (1:1) expressed in Xenopus laevis oocyte assessed as inhibition of ACh induced channel current measured for 2 to 5 days at -80 mV holding potential by two electrode voltage clamp method.
For test [12], the target named is T3, Neuronal acetylcholine receptor; alpha9/alpha10 (Homo sapiens). Put plainly: Inhibition of human alpha9 N154G mutant/alpha10 nACHR (1:3) expressed in Xenopus laevis oocyte assessed as inhibition of ACh induced channel current at 1 uM measured for 2 to 5 days at -80 mV holding potential by two electrode voltage clamp method.
Test [13] shares this target. Put plainly: Inhibition of human alpha9/alpha10 nACHR (4:1) expressed in Xenopus laevis oocyte assessed as inhibition of ACh induced channel current at 1 uM measured for 2 to 5 days at -80 mV holding potential by two electrode voltage clamp method.

Peptide text beside a SMILES is read from it.

T2 sequence (Q9GZZ6 whole entry, looked up, stated change not applied): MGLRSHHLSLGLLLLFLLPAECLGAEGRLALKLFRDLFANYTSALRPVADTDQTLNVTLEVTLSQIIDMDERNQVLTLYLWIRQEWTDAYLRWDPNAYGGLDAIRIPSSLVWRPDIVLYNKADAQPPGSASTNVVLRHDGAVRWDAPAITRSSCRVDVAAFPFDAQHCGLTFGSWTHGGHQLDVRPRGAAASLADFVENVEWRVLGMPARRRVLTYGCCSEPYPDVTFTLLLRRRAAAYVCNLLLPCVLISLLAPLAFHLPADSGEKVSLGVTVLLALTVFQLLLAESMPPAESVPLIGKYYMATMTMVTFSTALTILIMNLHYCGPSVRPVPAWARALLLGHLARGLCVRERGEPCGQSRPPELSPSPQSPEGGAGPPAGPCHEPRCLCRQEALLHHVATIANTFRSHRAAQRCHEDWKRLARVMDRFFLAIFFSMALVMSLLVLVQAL
T2 sequence (Q9UGM1 whole entry, looked up, stated change not applied): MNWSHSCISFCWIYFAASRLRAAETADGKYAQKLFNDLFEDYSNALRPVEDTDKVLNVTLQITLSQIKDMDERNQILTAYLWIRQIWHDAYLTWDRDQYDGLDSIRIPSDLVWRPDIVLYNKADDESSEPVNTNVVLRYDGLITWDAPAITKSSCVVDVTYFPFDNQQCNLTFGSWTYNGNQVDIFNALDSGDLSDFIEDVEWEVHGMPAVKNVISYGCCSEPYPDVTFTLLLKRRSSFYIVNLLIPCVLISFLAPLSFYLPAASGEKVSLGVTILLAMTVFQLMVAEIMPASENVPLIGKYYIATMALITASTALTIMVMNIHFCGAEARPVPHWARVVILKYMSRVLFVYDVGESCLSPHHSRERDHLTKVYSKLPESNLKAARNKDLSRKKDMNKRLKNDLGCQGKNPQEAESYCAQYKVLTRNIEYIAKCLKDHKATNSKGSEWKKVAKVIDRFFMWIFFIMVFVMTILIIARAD
T1 sequence (Q9UGM1 whole entry): as the sequence (Q9UGM1 whole entry, looked up, stated change not applied) above
T1 sequence (Q9GZZ6 whole entry): as the sequence (Q9GZZ6 whole entry, looked up, stated change not applied) above
Sequence of Neuronal acetylcholine receptor; alpha9/alpha10 (Homo sapiens, UniProt Q9GZZ6+Q9UGM1, G154N) (Q9GZZ6 whole entry, looked up, stated change not applied): as above
Sequence of Neuronal acetylcholine receptor; alpha9/alpha10 (Homo sapiens, UniProt Q9GZZ6+Q9UGM1, G154N) (Q9UGM1 whole entry, looked up, stated change not applied): as the sequence (Q9UGM1 whole entry, looked up, stated change not applied) above

As to `CC[C@H](C)[C@@H]1NC(=O)[C@H](CC(N)=O)NC(=O)[C@@H]2CCCN2C(=O)[C@H](Cc2ncc[nH]2)NC(=O)[C@H](CC(=O)O)NC(=O)[C@H](Cc2ccc(O)cc2)NC(=O)[C@H](CC(N)=O)NC(=O)[C@@H]2CSSC[C@H](NC(=O)CN)C(=O)N[C@@H](CSSC[C@@H](C(N)=O)NC1=O)C(=O)N[C@@H](CO)C(=O)N[C@@H](CC(=O)O)C(=O)N1CCC[C@H]1C(=O)N[C@@H](CCCNC(=N)N)C(=O)N2` (HELM PEPTIDE1{G.C.C.S.D.P.R.C.N.Y.D.[O=C([C@H](Cc1ncc[nH]1)N[*:1])[*:2]].P.N.I.C.[am]}$PEPTIDE1,PEPTIDE1,2:R3-8:R3|PEPTIDE1,PEPTIDE1,3:R3-16:R3$$$V2.0), the IC50 (commonly the midpoint of a concentration-inhibition curve) in [1] was 10.8 µM; in test [2] it was 8.59 µM; in test [3], 17.5 µM; in test [4], 10.2 µM.

With `CC[C@H](C)[C@@H]1NC(=O)[C@H](CCC(=O)O)NC(=O)[C@@H]2CCCN2C(=O)[C@H](Cc2ncc[nH]2)NC(=O)[C@H](CC(=O)O)NC(=O)[C@H](Cc2ccc(O)cc2)NC(=O)[C@H](CC(N)=O)NC(=O)[C@@H]2CSSC[C@H](NC(=O)CN)C(=O)N[C@@H](CSSC[C@@H](C(N)=O)NC1=O)C(=O)N[C@@H](CO)C(=O)N[C@@H](CC(=O)O)C(=O)N1CCC[C@H]1C(=O)N[C@@H](CCCNC(=N)N)C(=O)N2` (HELM PEPTIDE1{G.C.C.S.D.P.R.C.N.Y.D.[O=C([C@H](Cc1ncc[nH]1)N[*:1])[*:2]].P.E.I.C.[am]}$PEPTIDE1,PEPTIDE1,2:R3-8:R3|PEPTIDE1,PEPTIDE1,3:R3-16:R3$$$V2.0), the concentration for half-maximal inhibition (IC50) in [1] is 0.75 µM; in test [2], 17 µM; in test [6], 0.75 µM; in test [3], 3.57 µM; in [4], 11.3 µM; in [11] it was 1 µM. Also, the results for the Ratio IC50 in the test listed under Homo sapiens [5] and in the test filed under Homo sapiens [7] were 3 and 23, respectively. For the same compound, the inhibition (in general, the share of the control response that was lost under treatment) stood at 25.5% in [8]; 21.8% in [9]; 65.8% in [10]; 19.5% in test [12]; 65.8% in test [13].

Regarding `N=C(N)NCCC[C@@H]1NC(=O)[C@H](Cc2ccc(O)cc2)NC(=O)[C@H](CCCNC(=N)N)NC(=O)[C@@H]2CSSC[C@H](NC(=O)CN)C(=O)N[C@@H](CSSC[C@@H](C(N)=O)NC1=O)C(=O)N[C@@H](CO)C(=O)N[C@@H](CC(=O)O)C(=O)N1CCC[C@H]1C(=O)N[C@@H](CCCNC(=N)N)C(=O)N2` (HELM PEPTIDE1{G.C.C.S.D.P.R.C.R.Y.R.C.[am]}$PEPTIDE1,PEPTIDE1,2:R3-8:R3|PEPTIDE1,PEPTIDE1,3:R3-12:R3$$$V2.0), the IC50 in [11] came out at 249 µM.

As to `CC(C)[C@@H]1NC(=O)[C@H](CO)NC(=O)[C@@H]2CSSC[C@H](NC(=O)CN)C(=O)N[C@@H](CSSC[C@@H](C(N)=O)NC(=O)[C@H](CCCCN)NC(=O)[C@H](CC(N)=O)NC(=O)[C@@H]3CCCN3C(=O)[C@H](Cc3ncc[nH]3)NC(=O)[C@H](CC(=O)O)NC1=O)C(=O)N[C@@H](CO)C(=O)N[C@@H](CC(=O)O)C(=O)N1CCC[C@H]1C(=O)N[C@@H](CCCNC(=N)N)C(=O)N2` (HELM PEPTIDE1{G.C.C.S.D.P.R.C.S.V.D.[O=C([C@H](Cc1ncc[nH]1)N[*:1])[*:2]].P.N.K.C.[am]}$PEPTIDE1,PEPTIDE1,2:R3-8:R3|PEPTIDE1,PEPTIDE1,3:R3-16:R3$$$V2.0), the IC50 was 9.3 µM in test [1], 15.2 µM in test [2], 13.2 µM in test [3] and 13 µM in test [4].

(Values after ChEMBL document CHEMBL4219259, “Molecular Determinants Conferring the Stoichiometric-Dependent Activity of α-Conotoxins at the Human α9α10 Nicotinic Acetylcholine Receptor Subtype” (J Med Chem, 2018).)
